Where two headings read alike, the source gives them in different places. *1 amine or outer side, *2 acyl side, *3 side chain or, on linkers, in order; H or OH if unused. Where a SMILES comes first, the peptide text is derived from it. Bridges are numbered along the chain shown (N, C = ends). [ ]: non-standard residue; d: D form. ξ: configuration not given here. ξαMeNle(6-ylidene) = CC(CCCC=[*:3])(N[*:1])C(=O)[*:2]
Key:
[1] = target: N-terminal domain of Mdm2 (1-125) (Homo sapiens, UniProt Q00987); assay: Competitive fluorescence anisotropy titration (apparent Kd)
Experimental: In this assay, a N-terminally FAM labelled peptide of the sequence [sequence]
The cells expressing the Mdm2 GST fusion construct were grown in LB medium at 37° C. to an OD600 of ˜0.6 and induction was carried out with 1 mM isopropyl β-D-1-thiogalactopyranoside (IPTG) at room temperature. Cells were harvested by centrifugation and the cell pellets were resuspended in 50 mM Tris pH 8.0, 10% sucrose and then sonicated. The sonicated sample was centrifuged for 60 minutes at 17,000 g at 4° C. […] The column was then further washed by 6 volumes of wash buffer. Mdm2 were then purified from the column by cleavage with PreScission protease. 10 units of PreScission protease, in one column volume of PBS with 1 mM DTT buffer, were injected onto the column. The cleavage reaction was allowed to proceed overnight at 4° C. The cleaved protein was then eluted of the column with wash buffer. Protein fractions were analysed with SDS-PAGE and concentrated using a Centricon (3.5 kDa molecular weight cut-off (MWCO)) concentrator. The Mdm2 protein sample was then dialyzed into a buffer solution containing 20 mM Bis-Tris, pH 6.5, 0.05M NaCl with 1 mM DTT and loaded onto a monoS column pre-equilibrated in buffer A (20 mM Bis-Tris, pH 6.5, 1 mM DTT). The column was then washed in 6 column volumes of buffer A and bound protein was eluted with a linear gradient of 1M NaCl over 25 column volumes. Protein fractions were analysed with sodium dodecyl sulfate-polyacrylamide gel electrophoresis (SDS-PAGE) and concentrated using a Centricon (3.5 kDa molecular weight cut-off (MWCO)) concentrator.
Apparent dissociation constant (Kd) values were determined for a variety of molecules via competitive fluorescence anisotropy experiments. […] The competing molecules were then titrated against the complex of the FAM labelled peptide and protein. Apparent dissociation constant (Kd) values were determined by fitting the experimental data to the equations shown below:
[L]st and [L]t denote labelled ligand and total unlabelled ligand input concentrations, respectively. Kd2 is the dissociation constant of the interaction between the unlabelled ligand and the protein. In all competitive types of experiments, it is assumed that [P]t>[L]st, otherwise considerable amounts of free labelled ligand would always be present and would interfere with measurements. […] The FAM-labelled peptide was dissolved in dimethyl sulfoxide (DMSO) at 1 mM and diluted into experimental buffer. Readings were carried out with a Envision Multilabel Reader. […] All titrations were carried out in triplicate. Curve-fitting was carried out using Prism 4.0 (GraphPad). […]

T22 cells = assay: Lactate dehydrogenase release assay, T22 cells; assay type: cell-based; details: 2 h
Experimental: (§1) The stapled YS-01/04 peptides were also screened for their ability to perturb the cell membrane wall of T22 and ARN8 cells and release cytosolic lactate dehydrogenase (LDH). An effect that is regarded as undesirable as this may indicate that the peptide is non-specifically toxic to different cell types. A short 2 hour time treatment period is used for this assay as it is assumed that perforation of the cell membrane occurs […] for cell programmed death. […] The lactate dehydrogenase leakage measured was much greater in ARN8 cells than T22 cells, showing that different cells vary in their sensitivities to the membrane disruptive properties of YS-03. […] This implies that p53 activation, which is also supported by the data for YS-04, does occur in the absence of membrane disruption and that the biological activity observed for is not a direct consequence of cellular toxicity.
(§2) T22 cells or ARN8 cells, both of which were stably transfected with a p53 responsive β-galactosidase reporter, were seeded into a 96-well plate at a cell density of 5000 cells per well. Cells were also maintained in Dulbecco's Minimal Eagle Medium (DMEM) with 10% fetal bovine serum (FBS) and penicillin/streptomycin. The cells were incubated for 24 hours and then treated with compounds/peptide for 2 hours in DMEM with or without 10% FBS. Cytosolic lactate dehydrogenase release was detected using the non-radioactive cytotoxicity Assay kit (Promega) as per manufacturer's instructions. Measurements were carried out using an Envision multiplate reader.

ARN8 cells = assay: Lactate dehydrogenase release assay, ARN8 cells; assay type: cell-based; details: 2 h
Experimental: as §1, §2

[2] = test system: p53 transcriptional activity in T22 cells; assay: T22 p53 β-galactosidase based reporter assay; assay type: cell-based, murine; details: for IC50: T22 p53 reporter assay, 18 h; for ability to induce p53 activity in T22 reporter assay: with and without serum
Experimental: The YS-01/04 peptides were screened in a murine T22-derived p53 reporter assay, either with or without fetal calf serum, to assess their ability to induce p53 transcriptional activity in intact cells (Table 1 and FIG. 3).
(§3) T22 cells, which were stably transfected with a p53 responsive β-galactosidase reporter, were seeded into 96-well plate at a cell density of 8000 cells per well. Cells were also maintained in Dulbecco's Minimal Eagle Medium (DMEM) with 10% fetal bovine serum (FBS) and penicillin/streptomycin. […] Measurements were carried out using a Safire II multiplate reader. Experiments were carried out independently twice.

[3] = Circular dichroism spectroscopy (helicity in solution); assay type: physicochemical; details: peptide unbound in solution
[4] = test system: p53 and Mdm2 protein levels in T22 cells; assay: T22 western blot analysis of p53 and Mdm2 protein levels; assay type: cell-based, Murine; details: 25 μM and 50 μM, 18 h, with or without fetal calf serum
Source text: The YS-01/04 peptides were screened in a murine T22-derived p53 reporter assay, either with or without fetal calf serum, to assess their ability to induce p53 transcriptional activity in intact cells (Table 1 and FIG. 3). […] Considering the similar affinities that these peptides have for Mdm2, the difference in their IC50 values must reflect a change in their ability to enter the cell. This difference is observed for both sets of peptides (YS-01 and YS-02, YS-03 and YS-04, FIG. 3), which implies that the hydroxyl group of the C-terminal Y30 is responsible for the reduced efficiency of intracellular uptake. p53 and Mdm2 protein levels were then directly probed using western blot analysis. T22 cells were treated with 25 μM and 50 μM of YS-03 either with or without the presence of fetal calf serum (FIG. 4).
T22 Murine cells were seeded into 12 well plates at a cell density of 150000 cells per well and incubated overnight. Cells were also maintained in DMEM media with 10% fetal bovine serum (FBS) and penicillin/streptomycin. Cells were treated with various compounds/vehicle controls at the time points and concentrations indicated either in DMEM media with or without 10% FBS. Cells were rinsed with PBS and then harvested in 50 μl of 1×NuPAGE LDS sample buffer (NP0008). […] Protein concentrations were measured by BCA assay. […]

[5] = test system: p53 transcriptional activity in ARN8 cells; assay: ARN8 β-galactosidase based p53 reporter assay; assay type: cell-based, Human; details: serum free, 18 h
Experimental: ARN8 cells contain the same β-galactosidase gene under the control of a p53 promoter that is stably transfected into T22 cells. […] The YS-07 and YS-09 titrations were again repeated and the lactate dehydrogenase leakage from ARN8 cells measured instead (FIGS. 8c and 8d).
as §3, with “ARN8” for “T22”

[6] = 50/25/12.5 μM, absence or presence of serum
[7] = absence of serum, read-out: T22 IC50 (0% μM)
[8] = presence of 10% fetal calf serum, read-out: T22 Ic50 (10% μM)

Sequence of N-terminal domain of Mdm2 (1-125) (Q00987 1-125): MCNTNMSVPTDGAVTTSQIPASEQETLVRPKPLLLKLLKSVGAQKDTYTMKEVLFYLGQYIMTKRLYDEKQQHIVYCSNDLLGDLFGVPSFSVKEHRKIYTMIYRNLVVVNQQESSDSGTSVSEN

| Compound | Kd stronger in comparison to sMTIDE-02 ([1]; ratio to sMTIDE-02 Kd) | cytosolic lactate dehydrogenase (LDH) release (T22 cells; [6]) | cytosolic lactate dehydrogenase (LDH) release (ARN8 cells; [6]) | IC50 [2, 7] | IC50 [2, 8] | ability to induce p53 activity in T22 reporter assay [2] | Kd weaker than the i,i+4 analogue peptides (YS-01 and YS-02) ([1]; ratio to YS-01/YS-02 Kd) | helicity in solution (CD spectra) [3] | p53 and Mdm2 protein levels (western blot) [4] | p53 activation (β-galactosidase activity) in ARN8 cells [5] | cytosolic lactate dehydrogenase (LDH) release (T22 cells; serum free) | cytosolic lactate dehydrogenase (LDH) release (ARN8 cells; serum free) |
| --- | --- | --- | --- | --- | --- | --- | --- | --- | --- | --- | --- | --- |
| CC(=O)N[C@H](C(=O)N[C@@H](CO)C(=O)N[C@@H](Cc1ccccc1)C(=O)NC1(C)CCCC=CCCCC(C)(C(=O)N[C@@H](CC(C)C)C(=O)N[C@@H](CC(C)C)C(=O)N2CCC[C@H]2C(=O)N[C@@H](CCC(=O)O)C(=O)N[C@@H](CC(N)=O)C(=O)N[C@@H](Cc2ccc(O)cc2)C(N)=O)NC(=O)[C@H](Cc2c[nH]c3ccccc23)NC(=O)[C@H](Cc2ccc(O)cc2)NC(=O)[C@H](CCC(=O)O)NC1=O)[C@@H](C)O (stereo partly drawn) [YS-02, Ac-^17TSFX5EYWX5LLPENY^30-NH2] (Ac-TSF[ξαMeNle(6-ylidene)]EYW[ξαMeNle(6-ylidene)]LLPENY-NH2; staple 4-8) | approximately 3 fold | negligible lactate dehydrogenase release | negligible lactate dehydrogenase release | – | – | – | – | – | – | – | – | – |
| CC(=O)N[C@H](C(=O)N[C@@H](CO)C(=O)N[C@@H](Cc1ccccc1)C(=O)NC1(C)CCCCCCC=CCCCC(C)(C(=O)N[C@@H](CCC(=O)O)C(=O)N[C@@H](CC(N)=O)C(=O)N[C@@H](Cc2ccccc2)C(N)=O)NC(=O)[C@H](CC(C)C)NC(=O)[C@H](CC(C)C)NC(=O)[C@H](C)NC(=O)[C@H](Cc2c[nH]c3ccccc23)NC(=O)[C@H](Cc2ccc(O)cc2)NC(=O)[C@H](CCC(=O)O)NC1=O)[C@@H](C)O (stereo partly drawn) [YS-03, Ac-^17TSFX8EYWALLS5ENF^30-NH2] | – | – | – | 4.57 µM | 54.7 µM | greater potency in the T22 assay than YS-01 and YS-02 | approximately 2 fold | significantly more helical in character in solution than YS-01 and YS-02 | induction of p53 and Mdm2 protein levels | – | – | – |
| CC(=O)N[C@H](C(=O)N[C@@H](CO)C(=O)N[C@@H](Cc1ccccc1)C(=O)NC1(C)CCCC=CCCCC(C)(C(=O)N[C@@H](CC(C)C)C(=O)N[C@@H](CC(C)C)C(=O)N[C@@H](CO)C(=O)N[C@@H](CCC(=O)O)C(=O)N[C@@H](CC(N)=O)C(=O)N[C@@H](Cc2ccccc2)C(N)=O)NC(=O)[C@H](Cc2c[nH]c3ccccc23)NC(=O)[C@H](Cc2ccc(O)cc2)NC(=O)[C@H](CCC(=O)O)NC1=O)[C@@H](C)O (stereo partly drawn) [YS-05, Ac-^17TSFX5EYWX5LLSENF^30-NH2] (Ac-TSF[ξαMeNle(6-ylidene)]EYW[ξαMeNle(6-ylidene)]LLSENF-NH2; staple 4-8) | – | negligible activity | negligible activity | – | – | improvement of both peptides to activate p53 | – | significantly more helical structure | – | – | – | – |
| CC(=O)N[C@H](C(=O)N[C@@H](CO)C(=O)N[C@@H](Cc1ccccc1)C(=O)N[C@]1(C)CCCCCCC=CCCC[C@@](C)(C(N)=O)NC(=O)[C@H](CC(C)C)NC(=O)[C@H](CC(C)C)NC(=O)[C@H](C)NC(=O)[C@H](Cc2c[nH]c3ccccc23)NC(=O)[C@H](Cc2ccc(O)cc2)NC(=O)[C@H](CCC(=O)O)NC1=O)[C@@H](C)O [sMTide-02, Ac-TSFX8EYWALLS5-NH2, reference compound] | – | – | – | 2.75 µM | 17.9 µM | – | – | – | – | poorly induces p53 activity | significant amounts of lactate dehydrogenase leakage | large amounts of lactate dehydrogenase leakage |

From patent US11319344B2, “Non-membrane disruptive P53 activating stapled peptides” (AGENCY FOR SCIENCE, TECHNOLOGY AND RESEARCH, priority 2015, dated 2022)
